# Measurements published in PMC4604124, “In Vitro Characterization of the Pharmacological Properties of the Anti-Cancer Chelator, Bp4eT, and Its Phase I Metabolites” (PLoS ONE, 2015).
# Several values for one entry are separate records, joined by “and”; a condition that tells them apart may be missing. Identical values can stand only once. Like-named read-outs stand apart in the source and are kept apart here.
# Tests used:
# [1] = test system: labile iron pool of MCF-7 cells; test: Calcein-AM assay, access to the labile iron pool; assay type: cell-based, human; set-up: Calcein fluorescence: unit not given here; conditions: 10 μM
# Procedure, shortened: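 MCF-7 cells iron-loaded with ferric ammonium citrate (530 μg/mL) for 24 h, then loaded with 2 μM calcein-AM for 30 min at 37°C in ADS buffer, pH 7.4. Calcein fluorescence dequenching (ex 488/em 530 nm) followed for 10 min after adding 10 μM compound; efficacy expressed as percentage of Bp4eT (100%).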
# [2] = test system: A549 human lung adenocarcinoma cells; test: MTT cytotoxicity assay, A549 cells; assay type: cell-based; conditions: for IC50: MTT
# Procedure, shortened: (§1)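 Cells seeded 24 h at 37 °C (MCF-7 5,000, HCT116 and A549 2,000, H9c2 10,000 per well; H9c2 then 24 h in serum- and pyruvate-free DMEM), then exposed to Bp4eT or metabolites 72 h at 37 °C with 0.1% DMSO. MTT read at 570 nm minus 690 nm; viability as % of untreated control, IC50 derived.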
# [3] = MTT cytotoxicity assay, 3T3 cells; assay type: cell-based, mouse; conditions: mouse, 3T3 mouse embryo fibroblasts, 3T3, 10 000 b/j; for viability at 72 h, 3 nM: koncentrace 3 nM; for viability at 72 h, 10 nM: koncentrace 10 nM; for viability at 72 h, 30 nM: koncentrace 30 nM; for viability at 72 h, 100 nM: koncentrace 100 nM; for viability at 72 h, 300 nM: koncentrace 300 nM; for viability at 72 h, 1000 nM: koncentrace 1000 nM; for viability at 72 h, 3000 nM: koncentrace 3000 nM
# Procedure, shortened: (§2)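 Non-cancerous 3T3 mouse embryo fibroblasts were plated at 10,000 cells/well in 96-well plates and cultured for 24 h/37°C. The medium was then replaced with serum- and pyruvate-free DMEM for a further 24 h/37°C. Cells were exposed to agents for 72 h/37°C with 0.1% DMSO present, and viability was measured by MTT.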
# [4] = test system: 3T3 mouse embryo fibroblasts; test: MTT cytotoxicity assay, 3T3 cells; assay type: cell-based; conditions: for IC50: MTT
# Procedure, shortened: as §2
# [5] = Viability (viabilita) used to normalise caspase activity; assay type: cell-based, human; conditions: human, MCF-7 cells, kontrola = 100;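 note: compound tested at 100 nM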
# Text: Supplement pone.0139929.s002.zip/caspases activity.xlsx, sheet "results_viability"
# [6] = test system: HCT116 human colorectal carcinoma cells; test: MTT cytotoxicity assay, HCT116 cells; assay type: cell-based; conditions: for IC50: MTT
# Procedure, shortened: as §1
# [7] = individual experiments, read-out: MTT viability (0 = 100)
# [8] = mean, read-out: MTT viability (0 = 100), průměr
compound,measurement,setting,value
"CCNC(=S)NN=C(c1ccccc1)c1ccccn1 [Bp4eT, 2-benzoylpyridine 4-ethyl-3-thiosemicarbazone]",Calcein fluorescence,"[1]; 30 sec, mean (průměr)",27.822
same,Calcein fluorescence,"[1]; 60 sec, mean (průměr)",40.360
same,Calcein fluorescence,"[1]; 90 sec, mean (průměr)",65.393
same,Calcein fluorescence,"[1]; 120 sec, mean (průměr)",66.572
same,Calcein fluorescence,"[1]; 300 sec, mean (průměr)",146.135
same,Calcein fluorescence,"[1]; 300 sec, single experiments",168.950 and 158.308 and 180.958 and 116.900 and 150.183 and 101.508
same,Calcein fluorescence,"[1]; 600 sec, mean (průměr)",220.551
same,Calcein fluorescence,"[1]; 600 sec, single experiments",239.975 and 219.283 and 288.833 and 220.450 and 195.583 and 159.183
same,Chelation efficacy: fluorescence of free calcein at t = 600 s as percentage of Bp4eT,"[1]; MCF-7, mean of 6 experiments",100%
same,Fluorescence of free calcein at 600 s as percentage of Bp4eT,"[1]; MCF-7, single experiments",108.807% and 99.4251% and 130.96% and 99.954% and 88.6793% and 72.1752%
same,"Therapeutic index, IC50 non-cancerous cells / IC50 neoplastic cells",[2]; 3T3/A549,2.2
same,"MTT, relative to control (0 = 100)","[2]; A549, 2 000 b/j, 3 nM, průměr (mean)",92.19
same,"MTT, relative to control (0 = 100)","[2]; A549, 2 000 b/j, 3 nM, single experiment (date)",91.5535 and 92.8133 and 91.0654 and 88.0734 and 97.4647
same,"MTT, relative to control (0 = 100)","[2]; A549, 2 000 b/j, 10 nM, průměr (mean)",91.72
same,"MTT, relative to control (0 = 100)","[2]; A549, 2 000 b/j, 10 nM, single experiment (date)",91.5177 and 92.1605 and 92.1041 and 86.392 and 96.4421
same,"MTT, relative to control (0 = 100)","[2]; A549, 2 000 b/j, 30 nM, průměr (mean)",87.89
same,"MTT, relative to control (0 = 100)","[2]; A549, 2 000 b/j, 30 nM, single experiment (date)",87.7056 and 88.2789 and 85.7469 and 83.2321 and 94.498
same,"MTT, relative to control (0 = 100)","[2]; A549, 2 000 b/j, 100 nM, průměr (mean)",69.03
same,"MTT, relative to control (0 = 100)","[2]; A549, 2 000 b/j, 100 nM, single experiment (date)",72.0253 and 71.8755 and 68.5876 and 61.5642 and 71.0965
same,"MTT, relative to control (0 = 100)","[2]; A549, 2 000 b/j, 300 nM, průměr (mean)",52.20
same,"MTT, relative to control (0 = 100)","[2]; A549, 2 000 b/j, 300 nM, single experiment (date)",56.5532 and 52.1351 and 48.5459 and 51.5538
same,"MTT, relative to control (0 = 100)","[2]; A549, 2 000 b/j, 1000 nM, průměr (mean)",44.75
same,"MTT, relative to control (0 = 100)","[2]; A549, 2 000 b/j, 1000 nM, single experiment (date)",46.6699 and 42.1761 and 41.9617 and 48.1966
same,"MTT, relative to control (0 = 100)","[2]; A549, 2 000 b/j, 3000 nM, průměr (mean)",30.92
same,"MTT, relative to control (0 = 100)","[2]; A549, 2 000 b/j, 3000 nM, single experiment (date)",34.7604 and 31.7204 and 27.6953 and 29.4937
same,IC50,"[2]; A549, 2 000 b/j, single experiment (date)",550 nM and 407 nM and 670 nM
same,"Therapeutic index, IC50 non-cancerous cells / IC50 neoplastic cells",[2]; H9c2/A549,0.9
same,IC50,"[2]; Homo sapiens, A549, 72 h, A549, 72 h/37°C, mean ± SD, n ≥ 4",593 ± 148 nM
same,IC50,"[2]; Homo sapiens, A549, A549, 2 000 b/j, průměr (mean)",593 nM
same,IC50,"[2]; Homo sapiens, A549, A549, 2 000 b/j, single experiment (date)",744 nM
same,"Therapeutic indices, range",[2]; against A549 cells (H9c2/A549 and 3T3/A549),0.9–2.2
same,"viability at 72 h, 3 nM",[3]; [7],101%
same,"viability at 72 h, 3 nM",[3]; [8],102%
same,"viability at 72 h, 10 nM",[3]; [7],93.7%
same,"viability at 72 h, 10 nM",[3]; [8],98.6%
same,"viability at 72 h, 30 nM",[3]; [7],89%
same,"viability at 72 h, 30 nM",[3]; [8],91.5%
same,"viability at 72 h, 100 nM",[3]; [7],75.4%
same,"viability at 72 h, 100 nM",[3]; [8],72.8%
same,"viability at 72 h, 300 nM",[3]; [7],72.4%
same,"viability at 72 h, 300 nM",[3]; [8],69.4%
same,"viability at 72 h, 1000 nM",[3]; [7],49.5%
same,"viability at 72 h, 1000 nM",[3]; [8],56.6%
same,"viability at 72 h, 3000 nM",[3]; [7],32.5%
same,"viability at 72 h, 3000 nM",[3]; [8],40.5%
same,IC50,"[4]; 3T3, 10 000 b/j, individual experiments, read-out: IC50",1080 nM and 1700 nM and 1480 nM
same,MTT viability (0 = 100),"[4]; 3T3, 10 000 b/j, koncentrace 3 nM, individual experiments",107.858 and 101.159 and 95.977
same,MTT viability (0 = 100),"[4]; 3T3, 10 000 b/j, koncentrace 10 nM, individual experiments",95.2009 and 97.9751 and 101.968 and 103.897
same,MTT viability (0 = 100),"[4]; 3T3, 10 000 b/j, koncentrace 30 nM, individual experiments",82.5017 and 95.1437 and 97.4935 and 93.6042
same,MTT viability (0 = 100),"[4]; 3T3, 10 000 b/j, koncentrace 100 nM, individual experiments",72.3252 and 75.1668 and 68.1869
same,MTT viability (0 = 100),"[4]; 3T3, 10 000 b/j, koncentrace 300 nM, individual experiments",69.1649 and 63.247 and 72.6411
same,MTT viability (0 = 100),"[4]; 3T3, 10 000 b/j, koncentrace 1000 nM, individual experiments",57.0662 and 64.2452 and 55.7111
same,MTT viability (0 = 100),"[4]; 3T3, 10 000 b/j, koncentrace 3000 nM, individual experiments",36.2815 and 49.6279 and 43.6868
same,IC50,"[4]; Mus musculus, Fibroblast, 3T3, 10 000 b/j, individual experiments, read-out: IC50",977 nM
same,IC50,"[4]; Mus musculus, Fibroblast, 3T3, 10 000 b/j, mean, read-out: IC50, průměr",1310 nM
same,IC50,"[4]; Mus musculus, Fibroblast, 72 h, 3T3, 72 h/37°C, mean ± SD, n ≥ 4, read-out: IC50",1310 ± 337 nM
same,"viability at 3 h, 100 nM",[5]; 3 hodiny,96.3%
same,"viability at 24 h, 100 nM",[5]; 24 hodin,52.8%
same,"viability at 72 h, 100 nM",[5]; 72 hodin,27.1%
same,"Therapeutic index, IC50 non-cancerous cells / IC50 neoplastic cells",[6]; 3T3/HCT116,163.6
same,"Therapeutic index, IC50 non-cancerous cells / IC50 neoplastic cells",[6]; H9c2/HCT116,65.5
same,"MTT, relative to control (0 = 100)","[6]; HCT116, 2 000 b/j, 0.1 nM, průměr (mean)",92.91
same,"MTT, relative to control (0 = 100)","[6]; HCT116, 2 000 b/j, 0.1 nM, single experiment (date)",94.5188 and 92.721 and 92.454 and 82.0932 and 102.751
same,"MTT, relative to control (0 = 100)","[6]; HCT116, 2 000 b/j, 0.3 nM, průměr (mean)",88.66
same,"MTT, relative to control (0 = 100)","[6]; HCT116, 2 000 b/j, 0.3 nM, single experiment (date)",92.7269 and 86.3547 and 90.8174 and 78.0265 and 95.3944
same,"MTT, relative to control (0 = 100)","[6]; HCT116, 2 000 b/j, 1 nM, průměr (mean)",85.74
same,"MTT, relative to control (0 = 100)","[6]; HCT116, 2 000 b/j, 1 nM, single experiment (date)",90.3279 and 80.727 and 89.5958 and 78.1202 and 89.9198
same,"MTT, relative to control (0 = 100)","[6]; HCT116, 2 000 b/j, 3 nM, průměr (mean)",82.64
same,"MTT, relative to control (0 = 100)","[6]; HCT116, 2 000 b/j, 3 nM, single experiment (date)",85.5357 and 81.1307 and 88.4648 and 76.4907 and 81.5651
same,"MTT, relative to control (0 = 100)","[6]; HCT116, 2 000 b/j, 10 nM, průměr (mean)",43.25
same,"MTT, relative to control (0 = 100)","[6]; HCT116, 2 000 b/j, 10 nM, single experiment (date)",46.7731 and 45.9842 and 47.2591 and 32.9751
same,"MTT, relative to control (0 = 100)","[6]; HCT116, 2 000 b/j, 30 nM, průměr (mean)",5.63
same,"MTT, relative to control (0 = 100)","[6]; HCT116, 2 000 b/j, 100 nM, průměr (mean)",2.50
same,IC50,"[6]; HCT116, 2 000 b/j, single experiment (date)",7.8 nM and 8.77 nM and 5.93 nM
same,IC50,"[6]; Homo sapiens, HCT-116, 72 h, HCT116, 72 h/37°C, mean ± SD, n ≥ 4",8 ± 1 nM
same,IC50,"[6]; Homo sapiens, HCT-116, HCT116, 2 000 b/j, průměr (mean)",7.6 nM
same,IC50,"[6]; Homo sapiens, HCT-116, HCT116, 2 000 b/j, single experiment (date)",7.89 nM
